These results are taken from patent US8604040B2 (priority 2010, dated 2013).

This data set is described as follows: log P by HPLC (EEC Directive 79/831 Annex V.A8). The format is physicochemical.
Setting [1] is: [b] LC-MS, acidic range, pH 2.7, 0.1% aqueous formic acid and acetonitrile.
Where [2] appears, read: [c] LC-MS, neutral range, pH 7.8, 0.001 molar aqueous ammonium hydrogencarbonate and acetonitrile.
The mark [3] stands for this setting: HPLC (LC-MS), [b] LC-MS, acidic range, pH 2.7, 0.1% aqueous formic acid and acetonitrile, read-out: log P.
Where [4] appears, read: HPLC, pH 2.7, given in the preparation examples, read-out: logP (pH2.7).
Setting [5] is: [a] HPLC, acidic range, pH 2.3, 0.1% aqueous phosphoric acid and acetonitrile.

Read-outs that look alike come from different tables or passages of the source. Marks after values point to notes of the source that are not given here.

In the case of `O=C(NC1CCc2ccccc21)c1cccc(C2CCN(C(=O)Cn3nc(C(F)F)cc3C(F)F)CC2)n1` (centres unmarked) [Example 84], the “log P” value is listed as 3.4 under setting [1] and 3.44 under setting [2].
Take `O=C(OC1CCCCC1F)c1cccc(C2CCN(C(=O)Cn3nc(C(F)F)cc3C(F)F)CC2)n1` (centres unmarked) [Example 115]: the “log P” value under setting [1] is 3.37^[b].
For `Cc1cc(C(F)(F)F)nn1CC(=O)N1CCC(c2cccc(C(=O)NCc3cccs3)n2)CC1` [Example 26], the “log P” value under setting [1] was 3.15 and the “log P” value under setting [2] amounted to 3.1.
`O=C(O)c1cccc(C2CCN(C(=O)Cn3nc(C(F)F)cc3C(F)F)CC2)n1` [Example 135, 6-(1-{[3,5-Bis(difluoromethyl)-1H-pyrazol-1-yl]acetyl}piperidin-4-yl)pyridine-2-carboxylic acid]: the chromatographic logP reads like this: under setting [3], 1.55; under setting [4], 1.55.
Consider `Cc1cc(C(F)(F)F)nn1CC(=O)N1CCC(c2cccc(C(=O)Nc3c(F)cccc3F)n2)CC1` [Example 28], for which the “log P” value reads like this: under setting [1], 3.13; under setting [2], 3.15.
Take `Cc1cc(C(F)(F)F)nn1CC(=O)N1CCC(c2cccc(C(=O)NCc3ccccn3)n2)CC1` [Example 25]: the “log P” value was found to be 1.97 under setting [1] and 2.44 under setting [2].
As for `O=C(SCc1ccccc1Cl)c1cccc(C2CCN(C(=O)Cn3nc(C(F)F)cc3C(F)F)CC2)n1` [Example 126], the “log P” value amounted to 4.44 under setting [5] and 4.49 under setting [2].
With `Cc1cccnc1COC(=O)c1cccc(C2CCN(C(=O)Cn3nc(C(F)(F)F)cc3C)CC2)n1` [Example 49], the “log P” value under setting [1] is 2.23^[b].
Still for that read-out and setting: the same measure for `Cc1cc(C(F)(F)F)nn1CC(=O)N1CCC(c2cccc(C(=O)OCc3ccc(F)cc3F)n2)CC1` [Example 42]: 3.6^[b]; for `Cc1cc(C(F)(F)F)nn1CC(=O)N1CCC(c2cccc(C(=O)OC(C)c3ccccc3Cl)n2)CC1` (centres unmarked) [Example 32]: 4.12^[b].
For `Cc1cc(C(F)(F)F)nn1CC(=O)N1CCC(c2cccc(C(=O)NC3CCCCC3)n2)CC1` [Example 18], the “log P” value under setting [2] was 3.46^[c].
For `Cc1cc(C(F)(F)F)nn1CC(=O)N1CCC(c2cccc(C(=O)OCc3ccccc3Cl)n2)CC1` [Example 46], the “log P” value under setting [1] is 3.84^[b].
Consider `CN(C(=O)c1cccc(C2CCN(C(=O)Cn3nc(C(F)F)cc3C(F)F)CC2)n1)C1CCCCC1` [Example 78], for which the “log P” value stood at 3.02 under setting [1] and 3.08 under setting [2].
`C=CCCCCOC(=O)c1cccc(C2CCN(C(=O)Cn3nc(C(F)F)cc3C(F)F)CC2)n1` [Example 101]: under setting [1], the “log P” value was 3.8^[b].
Turning to `Cc1ccccc1CSC(=O)c1cccc(C2CCN(C(=O)Cn3nc(C(F)F)cc3C(F)F)CC2)n1` [Example 133], the “log P” value reads like this: under setting [5], 4.39; under setting [2], 4.41.
With `O=C(OCc1c(F)cccc1F)c1cccc(C2CCN(C(=O)Cn3nc(C(F)F)cc3C(F)F)CC2)n1` [Example 107], the “log P” value under setting [1] was 3.44^[b].
On the same count and under the same terms, with `Cc1cc(C(F)(F)F)nn1CC(=O)N1CCC(c2cccc(C(=O)OC3CCCCC3F)n2)CC1` (centres unmarked) [Example 116] the figure was 3.43^[b].
On to `O=C(OCc1c(F)cc(F)cc1F)c1cccc(C2CCN(C(=O)Cn3nc(C(F)F)cc3C(F)F)CC2)n1` [Example 104], for which, under setting [1], the “log P” value was 3.57^[b].
As to `Cc1cc(C(F)(F)F)nn1CC(=O)N1CCN(c2cccc(C(=O)NCc3ccccc3Cl)n2)CC1` [Example 65], the “log P” value under setting [1] is 3.34 and the “log P” value under setting [2] turned out to be 3.36.
In the case of `O=C(OCc1ccccc1F)c1cccc(C2CCN(C(=O)Cn3nc(C(F)F)cc3C(F)F)CC2)n1` [Example 106], the “log P” value under setting [1] was 3.45^[b].
On the same count and under the same terms, with `O=C(OCc1ccccc1OC(F)(F)F)c1cccc(C2CCN(C(=O)Cn3nc(C(F)F)cc3C(F)F)CC2)n1` [Example 9] the figure was 3.89^[b]; with `CCCCCCCOC(=O)c1cccc(C2CCN(C(=O)Cn3nc(C(F)F)cc3C(F)F)CC2)n1` [Example 102], 4.59^[b].
`O=C(NCc1cccs1)c1cccc(C2CCN(C(=O)Cn3nc(C(F)F)cc3C(F)F)CC2)n1` [Example 91]: the “log P” value under setting [1] is listed as 2.98 and the “log P” value under setting [2] is given as 2.97.
In the same order, the values of `Cc1cc(C(F)(F)F)nn1CC(=O)N1CCC(c2cccc(C(=O)Nc3ccc4ccccc4c3)n2)CC1` [Example 30] are 4.09 and 4.11.
Take `Cc1cc(C(F)(F)F)nn1CC(=O)N1CCC(c2cccc(C(=O)N(C)Cc3ccc(Cl)cc3Cl)n2)CC1` [Example 13]: the “log P” value is, setting by setting: under setting [1], 3.85^[b]; 3.85^[c]; under setting [2], 3.85^[b]; 3.85^[c].
As to `CC(C)(C)OC(=O)N1CC=C(c2cccc(Br)n2)CC1` [tert-Butyl 6-bromo-3′,6′-dihydro-2,4′-bipyridine-1′(2′H)-carboxylate], the chromatographic logP under setting [4] was 4.14.
On the same count and under the same terms, with `O=C(O)c1cccc(N2CCN(C(=O)Cn3nc(C(F)F)cc3C(F)F)CC2)n1` [6-(4-{[3,5-Bis(difluoromethyl)-1H-pyrazol-1-yl]acetyl}piperazin-1-yl)pyridine-2-carboxylic acid] the figure was 0.68.
In the case of `CCOC(=O)c1cccc(C2CCN(C(=O)Cn3nc(C(F)F)cc3C(F)F)CC2)n1` [Example 131, Ethyl 6-(1-{[3,5-bis(difluoromethyl)-1H-pyrazol-1-yl]acetyl}piperidin-4-yl)pyridine-2-carboxylate], the chromatographic logP runs as follows: under setting [3], 2.68; under setting [4], 2.68.
On to `O=C(OCc1ccccc1OC(F)(F)F)c1cccc(C2CCN(C(=O)Cn3nc(C(F)F)cc3C(F)F)CC2)n1` [Example 7], for which, under setting [1], the “log P” value was 3.98^[b].
In the case of `Cc1cc(C(F)(F)F)nn1CC(=O)N1CCC(c2cccc(C(=O)OC3C=CCCC3)n2)CC1` (centres unmarked) [Example 33], the “log P” value under setting [1] was 3.64^[b].
Turning to `CN(Cc1ccccc1Br)C(=O)c1cccc(C2CCN(C(=O)Cn3nc(C(F)F)cc3C(F)F)CC2)n1` [Example 1], the “log P” value under setting [1] is on record as 3.32 and the “log P” value under setting [2] was 3.37.
On to `Cc1cc(C(F)(F)F)nn1CC(=O)N1CCC(c2cccc(C(=O)SCc3ccc(F)cc3)n2)CC1` [Example 59], for which the “log P” value reads like this: under setting [1], 4.29; under setting [2], 4.31.
With `CCOC(=O)c1cccc(N2CCN(C(=O)OC(C)(C)C)CC2)n1` [tert-Butyl 4-[6-(ethoxycarbonyl)pyridin-2-yl]piperazine-1-carboxylate], the chromatographic logP under setting [4] turned out to be 3.32.
With `O=C(Sc1cccc2ccccc12)c1cccc(C2CCN(C(=O)Cn3nc(C(F)F)cc3C(F)F)CC2)n1` [Example 114], the “log P” value runs as follows: under setting [5], 4.4; under setting [2], 4.42.
For the molecule `CC(C)(C)OC(=O)N1CCC(c2cccc(C(=O)O)n2)CC1` [6-[1-(tert-Butoxycarbonyl)piperidin-4-yl]pyridine-2-carboxylic acid], under setting [4], the chromatographic logP came to 1.78.
In the case of `Cc1cc(C(F)(F)F)nn1CC(=O)N1CCC(c2cccc(C(=O)OCc3c(F)cc(F)cc3F)n2)CC1` [Example 43], under setting [1], the “log P” value is 3.69^[b].
`Cc1cc(C(F)(F)F)nn1CC(=O)N1CCC(c2cccc(C(=O)SCc3c(F)cccc3F)n2)CC1` [Example 58]: the “log P” value was found to be 4.27 under setting [1] and 4.29 under setting [2].
For `O=C(Oc1cccc2c1CCCC2)c1cccc(N2CCN(C(=O)Cn3nc(C(F)F)cc3C(F)F)CC2)n1` [Example 139], the “log P” value is recorded as 4.25 under setting [5] and 4.29 under setting [2].

By log P is commonly meant a log measure of how a compound divides between an organic and an aqueous phase. The low end stands for a more hydrophilic compound, the high end for a more lipophilic compound.
